Measurements: PMC12186697, “HypoxyStat, a small-molecule form of hypoxia therapy that increases oxygen-hemoglobin affinity” (Cell, 2025)

Columns and labels:
[1] = Safety studies in mice at optimized dose; assay type: in vivo; settings: optimized dose (400 mg/kg daily)
Protocol: Additionally, we used the Reaction Bio InVEST panel to test 25+ potential off-targets that have been identified by a consortium of pharmaceutical companies as high-yield candidates.
Hematocrit was determined with an iStat VetScan 1 with Zoetis Chem 8+ cartridges. Blood glucose measurements were performed using OneTouch UltraPlus glucometer. Whole blood chemistry measurements were performed on a VetScan HM5.

Hb = Hb occupancy estimate from blood levels of compound and Hb; assay type: in vivo; settings: day 12, C57BL/6 mice
Protocol: (§1) We conducted a PK/PD study to determine the optimal dosing strategy for HypoxyStat in a chronic setting. First we administered a single 10 mg/kg oral dose of HypoxyStat to adult C57BL/6 mice and monitored its concentration in blood and plasma over a 10-day period (Figure 3A, left). Next, we administered HypoxyStat at doses of 20, 60, 200, and 600 mg/kg via oral gavage three times per week for 12 days. […] Based on blood levels of HypoxyStat and Hb measured on day 12, we estimated Hb occupancy to be 29.3% at 200 mg/kg and 41.4% at 600 mg/kg (Figure S1).[27]
Figure S1. Hemoglobin occupancy estimates, related to Figure 1
LC/MS/MS measurement of steady-state whole-blood HypoxyStat concentrations after day 12 administration in C57BL/6 mice (200 or 600 mg/kg PO, […]
week in 0.5% HPMC), N = 10 per group.
(A) Oral administration of HypoxyStat every other day (vehicle = 0.5% HPMC).
(B) LC/MS/MS measurement of steady-state mean whole-blood HypoxyStat concentrations after day 12 administration in C57BL/6 mice.
(C) Hb concentration after analogous treatment.
(D) Hb occupancy was calculated by dividing the HypoxyStat concentration in blood by the Hb concentration in blood on day 12.

Ndufs4 KO mouse = Ndufs4 KO mouse model of Leigh syndrome (survival, body weight, temperature, behavior, neuropathology); assay type: in vivo
Source text: We continuously bred Ndufs4 Het x Het mice to generate KO and controls for our experiments. Ndufs4+/− and WT mice were used as controls as they are identical in all previously reported assays. Ndufs4 mice were obtained directly from Jackson labs (#027058). Pups were weaned and genotyped at ~21 d after birth. The age of mice at the time of experiments is described throughout the text. Male and female mice were used throughout studies. All cages were provided with food and water, with hydrated gel provided to newly weaned cages. Body weights were recorded at every dosing. Mice were euthanized according to guidelines at 20% drop in peak body weight. All animal studies were approved by the Institutional Animal Care & Use Committee (IACUC) Program at UCSF/Gladstone.
Mice were administered HypoxyStat at 600 mg/kg every other day or 400mg/kg daily via oral gavage. For the disease prevention experiments, KO mice that underwent daily dosing were dosed starting ~P30 for 1 week of 200mg/kg daily, followed by 400mg/kg daily to allow for gradual dose escalation. For the reversal study, KO mice were dosed once with 200mg/kg on postnatal day ~P55, followed by 400mg/kg daily. HypoxyStat was formulated as a suspension at 60 mg/mL, 40mg/ml or 80mg/ml depending on dose in 0.5%HPMC and stored at 4 °C. The formulation was determined to be stable for at least 8 weeks. Animal body weight was taken at time of dosing to determine appropriate dosing volume (10 mL/kg for every other day dosing, 5ml/kg for daily dosing). Vehicle treated mice were administered the same volume of 0.5% HPMC.
Mice were euthanized via CO2 inhalation. To perfuse the whole body, the right atrium was nicked and a needle was inserted into the left ventricle. Ice-cold PBS was slowly injected first, followed immediately by 4% PFA solution. The brain was removed, stored in 4% PFA for 24–48 h, and then washed with PBS for 5 min (3 times). The brains were placed in 70% ethanol followed by paraffin embedding. For paraffin sections, brains were sagittally sectioned at 5 μm thickness. Prior to staining, sections were deparaffinized. Antigen retrieval was performed by heating the slides to boiling temperature in 10 mM sodium citrate solution (pH 6) in a microwave, followed by heating for 10 minutes. The sections were rinsed 3 times for 5 minutes each with PBS. They were then incubated in a blocking solution containing 5% donkey serum (DS) in PBS-Tx (PBS with 0.2% Triton X-100) for 60 minutes at room temperature. After blocking, sections were incubated overnight at 4C with the primary antibody IBA1 (Genetex GTX100042, 1:250) and NeuN (Sigma, MAB377, 1:500). Afterward, the sections were rinsed 3 times for 5 minutes with PBS-Tx. Next, they were incubated with a fluorophore-conjugated secondary antibodies (Invitrogen, A21206 or A31570) for 1 hour at room temperature. Following secondary antibody incubation, the sections were rinsed 3 times for 5 minutes with PBS-Tx, and then once for 5 minutes with PBS. Histology was quantified using either the percentage of Iba1+ positive signal or blinded scoring (on the scale of 1–5).
The open field instrument (San Diego Instruments) was used to measure spontaneous locomotor activity. Mice were placed in open field chambers and allowed to acclimate for 5 min before movement tracking for 20min. Spontaneous locomotor activity was measured based on beam breaks and recorded by the instrument. Age of measurements is +/− 5 days for practical purposes without any age bias between groups.

[2] = Mouse oral pharmacokinetics (blood and plasma, LC-MS/MS); assay type: in vivo, C57BL/6 mice
Protocol: as §1
Mouse plasma and whole blood samples were processed as outlined below. An equal volume of 3% aqueous formic acid in water was added to whole blood and plasma samples which were then vortexed at 600 rpm for 60 minutes at room temperature. Internal standard solution (acetonitrile containing 200 nM chrysin) was then added to the samples. They were then vortexed and centrifuged for 5 minutes at 4100 rpm and 4°C. Diluted extracts were injected into a Sciex 5500 LC-MS/MS system operated in positive mode for analysis. A Waters Acquity BEH C18 (50 x 2 mm, […]) UPLC column was used with Mobile Phases A (water:acetonitrile:formic acid [95:5:0.1, v:v:v]) and B (methanol:acetonitrile:formic acid [50:50:0.1, v:v:v]) to separate analytes. Multiple reaction monitoring transitions of 368/230 and 255/153 were used for HypoxyStat and chrysin, respectively.

Question: With O=Cc1ccccc1C(=O)N1CCCC[C@H]1COc1cccc(O)c1C=O [HypoxyStat] as the molecule, how does the “classical safety parameters (body weight, organ weights, complete blood count, clinical chemistries)” value [1] read?
Answer: Its value is “not adversely affected”.

Question: What about the Hb occupancy (Hb; 200 mg/kg PO 3 times per week) of the same molecule?
Answer: The Hb occupancy was 29.3%.

Question: And the Hb occupancy (Hb; 600 mg/kg PO 3 times per week)?
Answer: Its Hb occupancy is 41.4%.

Question: And the “lifespan increase of Ndufs4 KO mice” value (Ndufs4 KO mouse; 400 mg/kg daily oral gavage from P30 (1 week at 200 mg/kg))?
Answer: The value was 3–4 ×.

Question: What about the “tolerability of chronic dosing in control (WT or heterozygous) mice” value (Ndufs4 KO mouse; 600 mg/kg every other day or 400 mg/kg daily, all control mice survived) of the same molecule?
Answer: The value was “well tolerated”.

Question: What about the “lifespan increase of Ndufs4 KO mice” value (Ndufs4 KO mouse; 600 mg/kg every other day oral gavage from P30) of the same molecule?
Answer: The value was 1.5–2 ×.

Question: And the “body temperature of Ndufs4 KO mice” value (Ndufs4 KO mouse; HypoxyStat from P30)?
Answer: Its value is “restored body temperature to normal levels”.

Question: What about the “motor coordination (rotarod) and spontaneous activity (open field) of KO mice” value (Ndufs4 KO mouse; HypoxyStat from P30) of the same molecule?
Answer: Its value is “significantly improved motor coordination and spontaneous activity”.

Question: And the “body weight of drug-treated KO mice” value (Ndufs4 KO mouse; HypoxyStat from P30, comparable with inhaled hypoxia)?
Answer: Its value is “increased body weight”.

Question: What about the “lesion severity (Iba1 staining for microglial activation) at P50” value (Ndufs4 KO mouse; KO mice treated from P30, p < 0.05 vs vehicle) of the same molecule?
Answer: Its value is “significant reduction in lesion severity”.

Question: And the “concentration within red blood cells” value ([2]; 20, 60, 200 and 600 mg/kg oral gavage three times per week for 12 days)?
Answer: Its value is “dose-dependent increase”.

Question: What about the Cmax ([2]; C57BL/6, in vivo, oral, 10 mg/kg, Figure 2A, mouse) of the same molecule?
Answer: The Cmax was 1590 nM.

Question: What about the half-life ([2]; mouse, in vivo, 10 mg/kg oral gavage, C57BL/6 mice, read-out: effective half-life (Mouse PO half-life) (converted)) of the same molecule?
Answer: Its half-life is 5.04 days.

Question: And the blood plasma ratio at 3 days ([2]; mouse, whole blood and plasma, 10 mg/kg oral gavage, C57BL/6 mice, 3 days post dosing)?
Answer: Its blood plasma ratio at 3 days is 396.
